# Source: patent US20240368203A1, “DEGRADATION OF (EGFR) BY CONJUGATION OF EGFR INHIBITORS WITH E3 LIGASE LIGAND AND METHODS OF USE” (BeiGene, Ltd., priority 2022, published 2024)
# How the values were obtained:
# EGFR-L858R/T790M/C797S = target: T1, EGFR-L858R/T790M/C797S (Homo sapiens, UniProt P00533, C797S/L858R/T790M); assay: EGFR degradation HTRF assay in H1975-clone #25 cells; assay type: cell-based; details: 16 h treatment; for DC50: H1975-clone #25 (L858R/T790M/C797S) cells, IC50 (DC50), read-out: DC50(nM) H1975 # 25-LTC; for Dmax: NCI-H1975, H1975-clone #25 (L858R/T790M/C797S) cells, maximum percentage of inhibition (degradation), read-out: Dmax (%) H1975 # 25-LTC
# T1 construct: expressed in transfected cells; host or cells: H1975-clone #25 (lentiviral over-expression, endogenous EGFR knocked out)
# In short: (§1)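 H1975 clones with endogenous EGFR knocked out, homozygously expressing lentiviral L858R/T790M/C797S (#25) or Del19/T790M/C797S (#28), treated 16 h at 37° C with 8 doses from 10 uM, 5-fold, in 0.2% DMSO. EGFR in lysates measured by HTRF overnight; DC50 from four-parameter fit of % degradation.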
# EGFR-Del19/T790M/C797S = assay: EGFR degradation HTRF assay in H1975-clone #28 cells; assay type: cell-based; details: H1975-clone #28 (Del19/T790M/C797S) cells, 16 h treatment; for DC50: IC50 (DC50), read-out: DC50(nM) H1975 # 28 DTC; for Dmax (%) H1975 # 28 DTC: maximum percentage of inhibition (degradation)
# In short: as §1
# T1 sequence (P00533 25-1210 T790M/C797S/L858R): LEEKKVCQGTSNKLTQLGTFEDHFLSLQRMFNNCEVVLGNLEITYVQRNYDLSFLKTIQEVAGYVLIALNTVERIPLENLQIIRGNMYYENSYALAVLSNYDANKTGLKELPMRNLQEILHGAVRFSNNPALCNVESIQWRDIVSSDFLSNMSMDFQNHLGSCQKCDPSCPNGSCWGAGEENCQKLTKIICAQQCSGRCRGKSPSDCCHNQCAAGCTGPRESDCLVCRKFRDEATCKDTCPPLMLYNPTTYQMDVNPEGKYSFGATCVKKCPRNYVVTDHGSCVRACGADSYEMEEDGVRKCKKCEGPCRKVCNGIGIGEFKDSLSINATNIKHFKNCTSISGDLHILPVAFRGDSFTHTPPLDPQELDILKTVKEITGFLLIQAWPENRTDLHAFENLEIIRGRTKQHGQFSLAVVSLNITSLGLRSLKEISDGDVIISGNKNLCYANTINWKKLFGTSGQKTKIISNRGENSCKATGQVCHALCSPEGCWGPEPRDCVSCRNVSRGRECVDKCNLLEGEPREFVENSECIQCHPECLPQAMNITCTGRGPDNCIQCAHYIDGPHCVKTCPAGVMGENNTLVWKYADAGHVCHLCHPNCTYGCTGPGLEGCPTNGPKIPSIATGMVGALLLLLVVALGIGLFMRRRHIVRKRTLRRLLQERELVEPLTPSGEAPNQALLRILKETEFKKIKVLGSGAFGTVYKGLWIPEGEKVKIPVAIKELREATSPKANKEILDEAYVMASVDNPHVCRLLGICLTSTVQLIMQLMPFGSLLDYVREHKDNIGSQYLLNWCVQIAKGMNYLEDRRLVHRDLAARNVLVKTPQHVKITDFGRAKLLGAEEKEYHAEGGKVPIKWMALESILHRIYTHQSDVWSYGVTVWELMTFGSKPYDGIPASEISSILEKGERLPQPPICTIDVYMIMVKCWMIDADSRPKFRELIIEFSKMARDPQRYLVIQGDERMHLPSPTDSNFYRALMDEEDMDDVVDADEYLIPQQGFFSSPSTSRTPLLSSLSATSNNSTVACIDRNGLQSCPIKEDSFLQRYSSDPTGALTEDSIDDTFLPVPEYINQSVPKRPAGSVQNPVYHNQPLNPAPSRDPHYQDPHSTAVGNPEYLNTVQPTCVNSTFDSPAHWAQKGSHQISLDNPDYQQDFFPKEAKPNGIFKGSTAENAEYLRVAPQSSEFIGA
SMILES,DC50 (EGFR-L858R/T790M/C797S) [nM],Dmax (EGFR-L858R/T790M/C797S) [%],DC50 (EGFR-Del19/T790M/C797S) [nM],Dmax (%) H1975 # 28 DTC (EGFR-Del19/T790M/C797S) [%]
"CCc1cc(Nc2ncc(Br)c(Nc3ccc4nc(C)c(F)cc4c3P(C)(C)=O)n2)c(OC)cc1N1CCC2(CCN(CC3CN(c4cc(F)c([C@H]5CCC(=O)NC5=O)c(F)c4)C3)CC2)CC1 [Example 39, (R)-3-(4-(3-((9-(4-((5-bromo-4-((5-(dimethylphosphoryl)-3-fluoro-2-methylquinolin-6-yl)amino)pyrimidin-2-yl)amino)-2-ethyl-5-methoxyphenyl)-3,9-diazaspiro[5.5]undecan-3-yl)methyl)azetidin-1-yl)-2,6-difluorophenyl)piperidine-2,6-dione]",5.6,93,2.6,92
"CCc1ncc2c(P(C)(C)=O)c(Nc3nc(Nc4cc(CC)c(N5CCC6(CCN(CCc7cc(F)c([C@H]8CCC(=O)NC8=O)c(F)c7)CC6)CC5)cc4OC)ncc3Br)ccc2n1 [Example 40, (R)-3-(4-(2-(9-(4-((5-bromo-4-((5-(dimethylphosphoryl)-2-ethylquinazolin-6-yl)amino)pyrimidin-2-yl)amino)-2-ethyl-5-methoxyphenyl)-3,9-diazaspiro[5.5]undecan-3-yl)ethyl)-2,6-difluorophenyl)piperidine-2,6-dione]",6,86,2.4,88
"CCc1cc(Nc2ncc(Cl)c(Nc3ccc4nc(C)c(F)cc4c3P(C)(C)=O)n2)c(OC)cc1N1CCC2(CCN(CCc3cc(F)c([C@H]4CCC(=O)NC4=O)c(F)c3)CC2)CC1 [Example 41, (R)-3-(4-(2-(9-(4-((5-chloro-4-((5-(dimethylphosphoryl)-3-fluoro-2-methylquinolin-6-yl)amino)pyrimidin-2-yl)amino)-2-ethyl-5-methoxyphenyl)-3,9-diazaspiro[5.5]undecan-3-yl)ethyl)-2,6-difluorophenyl)piperidine-2,6-dione]",4.2,88,4.2,86
"CCc1ncc2c(P(C)(C)=O)c(Nc3nc(Nc4cc(C)c(N5CCC6(CCN(CCc7cc(F)c([C@H]8CCC(=O)NC8=O)c(F)c7)CC6)CC5)cc4OC)ncc3Cl)ccc2n1 [Example 42, (R)-3-(4-(2-(9-(4-((5-chloro-4-((5-(dimethylphosphoryl)-2-ethylquinazolin-6-yl)amino)pyrimidin-2-yl)amino)-5-methoxy-2-methylphenyl)-3,9-diazaspiro[5.5]undecan-3-yl)ethyl)-2,6-difluorophenyl)piperidine-2,6-dione]",4.9,85,1.5,93
"CCc1cc(Nc2ncc(Br)c(Nc3ccc4nc(C)c(F)cc4c3P(C)(C)=O)n2)c(OC)cc1N1CCC2(CCN(CCN(C)c3cc(F)c([C@H]4CCC(=O)NC4=O)c(F)c3)CC2)CC1 [Example 44, (R)-3-(4-((2-(9-(4-((5-bromo-4-((5-(dimethylphosphoryl)-3-fluoro-2-methylquinolin-6-yl)amino)pyrimidin-2-yl)amino)-2-ethyl-5-methoxyphenyl)-3,9-diazaspiro[5.5]undecan-3-yl)ethyl)(methyl)amino)-2,6-difluorophenyl)piperidine-2,6-dione]",4.2,92,3.5,90
"CCc1cc(Nc2ncc(Br)c(Nc3ccc4nc(C)c(F)cc4c3P(C)(C)=O)n2)c(OC)cc1N1CCC2(CCN(CC3CCN(c4cccc5c4C(=O)N(C4CCC(=O)NC4=O)C5=O)CC3)CC2)CC1 (centres unmarked) [Example 45, 4-(4-((9-(4-((5-bromo-4-((5-(dimethylphosphoryl)-3-fluoro-2-methylquinolin-6-yl)amino)pyrimidin-2-yl)amino)-2-ethyl-5-methoxyphenyl)-3,9-diazaspiro[5.5]undecan-3-yl)methyl)piperidin-1-yl)-2-(2,6-dioxopiperidin-3-yl)isoindoline-1,3-dione]",7.4,86,7.7,81
"CCc1cc(Nc2ncc(Br)c(Nc3ccc4nc(C)c(F)cc4c3P(C)(C)=O)n2)c(OC)cc1N1CCC2(CCN(CC3CCN(c4ccc5c(c4)C(=O)N(C4CCC(=O)NC4=O)C5=O)CC3)CC2)CC1 (centres unmarked) [Example 46, 5-(4-((9-(4-((5-bromo-4-((5-(dimethylphosphoryl)-3-fluoro-2-methylquinolin-6-yl)amino)pyrimidin-2-yl)amino)-2-ethyl-5-methoxyphenyl)-3,9-diazaspiro [5.5]undecan-3-yl)methyl)piperidin-1-yl)-2-(2,6-dioxopiperidin-3-yl)isoindoline-1,3-dione]",5.4,89,3.3,80
"CCc1cc(Nc2ncc(Br)c(Nc3ccc4nc(C)c(F)cc4c3P(C)(C)=O)n2)c(OC)cc1N1CCC2(CCN(CC3CCN(c4cc5c(cc4F)C(=O)N(C4CCC(=O)NC4=O)C5=O)CC3)CC2)CC1 (centres unmarked) [Example 47, 5-(4-((9-(4-((5-bromo-4-((5-(dimethylphosphoryl)-3-fluoro-2-methylquinolin-6-yl)amino)pyrimidin-2-yl)amino)-2-ethyl-5-methoxyphenyl)-3,9-diazaspiro[5.5]undecan-3-yl)methyl)piperidin-1-yl)-2-(2,6-dioxopiperidin-3-yl)-6-fluoroisoindoline-1,3-dione]",16,88,14.3,73
"CCc1cc(Nc2ncc(Br)c(Nc3ccc4nc(C)c(F)cc4c3P(C)(C)=O)n2)c(OC)cc1N1CCC2(CCN(C[C@@H]3CCN(c4ccc5c(c4)C(=O)N(C4CCC(=O)NC4=O)C5=O)C3)CC2)CC1 (stereo partly drawn) [Example 49, 5-((S)-3-((9-(4-((5-bromo-4-((5-(dimethylphosphoryl)-3-fluoro-2-methylquinolin-6-yl)amino)pyrimidin-2-yl)amino)-2-ethyl-5-methoxyphenyl)-3,9-diazaspiro[5.5]undecan-3-yl)methyl)pyrrolidin-1-yl)-2-(2,6-dioxopiperidin-3-yl)isoindoline-1,3-dione]",7.6,89,3.8,82

# Stronger by DC50 (EGFR-L858R/T790M/C797S), values ahead:
DC50 (EGFR-L858R/T790M/C797S) [nM],Dmax (EGFR-L858R/T790M/C797S) [%],DC50 (EGFR-Del19/T790M/C797S) [nM],SMILES,Dmax (%) H1975 # 28 DTC (EGFR-Del19/T790M/C797S) [%]
3.8,90,3.4,"CCc1cc(Nc2ncc(Br)c(Nc3ccc4nc(C)c(F)cc4c3P(C)(C)=O)n2)c(OC)cc1N1CCC2(CC1)CCN(C1CCN(c3cccc4c3C(C)(C)C(=O)N4C3CCC(=O)NC3=O)CC1)CC2 (centres unmarked) [Example 52, 3-(4-(4-(9-(4-((5-bromo-4-((5-(dimethylphosphoryl)-3-fluoro-2-methylquinolin-6-yl)amino)pyrimidin-2-yl)amino)-2-ethyl-5-methoxyphenyl)-3,9-diazaspiro[5.5]undecan-3-yl)piperidin-1-yl)-3,3-dimethyl-2-oxoindolin-1-yl)piperidine-2,6-dione]",79
3.6,88,3.6,"CCOc1cc(N2CCC(N3CCN(C4CCN(c5cc(F)c([C@H]6CCC(=O)NC6=O)c(F)c5)CC4)CC3)CC2)c(CC)cc1Nc1ncc(Cl)c(Nc2ccc3nc(C)c(F)cc3c2P(C)(C)=O)n1 [Example 54, (R)-3-(4-(4-(4-(1-(4-((5-chloro-4-((5-(dimethylphosphoryl)-3-fluoro-2-methylquinolin-6-yl)amino)pyrimidin-2-yl)amino)-5-ethoxy-2-ethylphenyl)piperidin-4-yl)piperazin-1-yl)piperidin-1-yl)-2,6-difluorophenyl)piperidine-2,6-dione]",86
3.1,89,2.5,"CCc1cc(Nc2ncc(Br)c(Nc3ccc4nc(C)c(F)cc4c3P(C)(C)=O)n2)c(OC)cc1N1CCC2(CC1)CCN(C1CCN(c3cccc4c3n(C)c(=O)n4C3CCC(=O)NC3=O)CC1)CC2 (centres unmarked) [Example 51, 3-(4-(4-(9-(4-((5-bromo-4-((5-(dimethylphosphoryl)-3-fluoro-2-methylquinolin-6-yl)amino)pyrimidin-2-yl)amino)-2-ethyl-5-methoxyphenyl)-3,9-diazaspiro[5.5]undecan-3-yl)piperidin-1-yl)-3-methyl-2-oxo-2,3-dihydro-1H-benzo[d]imidazol-1-yl)piperidine-2,6-dione]",77
2.8,90,1.7,"CCc1cc(Nc2ncc(Br)c(Nc3ccc4nc(C)c(F)cc4c3P(C)(C)=O)n2)c(OC)cc1N1CCC2(CCN(CC3CCN(c4ccc5c(c4)CN(C4CCC(=O)NC4=O)C5=O)CC3)CC2)CC1 (centres unmarked) [Example 48, 3-(5-(4-((9-(4-((5-bromo-4-((5-(dimethylphosphoryl)-3-fluoro-2-methylquinolin-6-yl)amino)pyrimidin-2-yl)amino)-2-ethyl-5-methoxyphenyl)-3,9-diazaspiro[5.5]undecan-3-yl)methyl)piperidin-1-yl)-1-oxoisoindolin-2-yl)piperidine-2,6-dione]",83
2.4,92,5.6,"CCc1ncc2c(P(C)(C)=O)c(Nc3nc(Nc4cc(CC)c(N5CCC(N6CC(CN7CCC(c8cc(F)c([C@H]9CCC(=O)NC9=O)c(F)c8)CC7)C6)CC5)cc4OC)ncc3Br)ccc2n1 [Example 55, (R)-3-(4-(1-((1-(1-(4-((5-bromo-4-((5-(dimethylphosphoryl)-2-ethylquinazolin-6-yl)amino)pyrimidin-2-yl)amino)-2-ethyl-5-methoxyphenyl)piperidin-4-yl)azetidin-3-yl)methyl)piperidin-4-yl)-2,6-difluorophenyl)piperidine-2,6-dione]",91
